Laboratory results taken from PMC5025041 (Journal of chromatography. A, 2015).
Like-named read-outs stand apart in the source and are kept apart here.

Tests used:
[1] = human, in vivo
[2] = human, in vivo; remark: listed apart in the source
[3] = test system: P-glycoprotein (Pgp); settings: not told; cited from earlier work
[4] = subject 8 dosed with O-DVX, with indinavir therapy, 1 hr and 4 hrs
[5] = test system: Pgp; settings: in vitro models; cited from earlier work
[6] = test system: CYP3A4; settings: cited from earlier work

In the case of `CN(C)CC(c1ccc(O)cc1)C1(O)CCCCC1` (centres unmarked) [O-DVX, O-desmethylvenlafaxine], the “S/R ratio of peak height in plasma” value ([1]; 1 h) is reported as 0.83, the “S/R ratio of peak height in plasma” value ([1]; 4 h) is reported as 0.98 and the “peak height ratio S- to R-enantiomer in plasma” value [2] is reported as 0.50-15.2. The “substrate of the drug transporter P-glycoprotein (Pgp)” value [3] was “substrates” and the “S/R ratio of peak height in plasma” value [4] was “remains less than one”.
For `COc1ccc(C(CN(C)C)C2(O)CCCCC2)cc1` (centres unmarked) [VX, venlafaxine], the “substrate of the drug transporter P-glycoprotein (Pgp)” value [3] is given as “substrates”.
In the case of `CC(C)(C)NC(=O)[C@@H]1CN(Cc2cccnc2)CCN1C[C@@H](O)C[C@@H](Cc1ccccc1)C(=O)N[C@H]1c2ccccc2C[C@H]1O` [indinavir], the “inhibition of Pgp” value [5] is given as “potent inhibitor”.
In the case of `CC(=O)N1CCN(c2ccc(OCC3COC(Cn4ccnc4)(c4ccc(Cl)cc4Cl)O3)cc2)CC1` (centres unmarked) [ketoconazole], the “reduction of N-desmethyl VX formation” value [6] is listed as 42%.
